Assay results published in patent US11746100B2 (GLOBAL BLOOD THERAPEUTICS, INC., priority 2020, dated 2023).

Target: T1, human ferroportin (Homo sapiens, UniProt Q9NP59)
T1 construct: luciferase reporter (read with the Nano-Glo Luciferase Assay System); expressed in transfected cells; host or cells: CHO cells, stably transfected, expression induced with doxycycline
T1 sequence (Q9NP59 1-571): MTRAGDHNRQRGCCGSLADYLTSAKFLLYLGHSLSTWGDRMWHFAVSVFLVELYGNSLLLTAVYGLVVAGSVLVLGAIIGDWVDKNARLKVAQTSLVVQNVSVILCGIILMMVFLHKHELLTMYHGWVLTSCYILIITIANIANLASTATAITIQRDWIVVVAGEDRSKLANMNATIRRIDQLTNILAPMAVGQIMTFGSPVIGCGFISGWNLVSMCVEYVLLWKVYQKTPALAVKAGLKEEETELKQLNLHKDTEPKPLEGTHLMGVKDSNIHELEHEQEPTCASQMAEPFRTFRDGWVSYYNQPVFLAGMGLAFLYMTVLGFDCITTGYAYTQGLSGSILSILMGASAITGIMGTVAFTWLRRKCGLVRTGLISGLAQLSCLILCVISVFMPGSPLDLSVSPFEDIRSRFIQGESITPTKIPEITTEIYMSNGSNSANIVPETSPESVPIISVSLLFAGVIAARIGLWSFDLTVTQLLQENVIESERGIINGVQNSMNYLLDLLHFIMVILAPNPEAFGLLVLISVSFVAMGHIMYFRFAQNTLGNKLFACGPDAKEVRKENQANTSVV
Assay: Biological in-vitro ferroportin internalization assay (luciferase reporter)
Type: cell-based
Conditions: average pEC50; stably-transfected CHO cell line expressing human ferroportin tagged to a luciferase reporter; 6 h incubation with test compound
In short: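 Stably transfected CHO cells expressing luciferase-tagged human ferroportin, plated 24 h with ferric ammonium citrate and induced with doxycycline for 24 h. Compounds incubated 6 h, then luciferase activity measured by Nano-Glo; average pEC50 reported.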

Row | pEC50 | SMILES
1 | 7.6 | COc1cnc(NC(=O)CN(C)c2nc(-c3cc(OCCO)ccn3)nc3c2CCC3)cn1 [Compound 290, 2-({2-[4-(2-hydroxyethoxy)pyridin-2-yl]-5H,6H,7H-cyclopenta[d]pyrimidin-4-yl}(methyl)amino)-N-(5-methoxypyrazin-2-yl)acetamide]
2 | 7.3 | Cc1ncc(NC(=O)CN(C)c2nc(-c3cc(OCCO)ccn3)nc3c2CCC3)cn1 [Compound 291, 2-({2-[4-(2-hydroxyethoxy)pyridin-2-yl]-5H,6H,7H-cyclopenta[d]pyrimidin-4-yl}(methyl)amino)-N-(2-methylpyrimidin-5-yl)acetamide]
3 | 8.1 | Cc1cccc(NC(=O)CN(C)c2nc(-c3cc(OCCO)ccn3)nc3c2CCC3)c1 [Compound 292, 2-({2-[4-(2-hydroxyethoxy)pyridin-2-yl]-5H,6H,7H-cyclopenta[d]pyrimidin-4-yl}(methyl)amino)-N-(3-methylphenyl)acetamide]
4 | 7.9 | CN(CC(=O)Nc1cccc(F)c1)c1nc(-c2cc(OCCN)ccn2)nc2c1CCC2 [Compound 293, 2-({2-[4-(2-aminoethoxy)pyridin-2-yl]-5H,6H,7H-cyclopenta[d]pyrimidin-4-yl}(methyl)amino)-N-(3-fluoropehnyl)acetamide]
5 | 7.9 | CN(C)CCOc1ccnc(-c2nc3c(c(N(C)CC(=O)Nc4cccc(F)c4)n2)CCC3)c1 [Compound 294, 2-[(2-{4-[2-(dimethylamino)ethoxy]pyridin-2-yl}-5H,6H,7H-cyclopenta[d]pyrimidin-4-yl)(methyl)amino]-N-(3-fluorophenyl)acetamide]
6 | 7 | COc1cnc(NC(=O)CN(C)c2nc(-c3cc(OCCO)ccn3)nc3c2CCC3)nc1 [Compound 295, 2-({2-[4-(2-hydroxyethoxy)pyridin-2-yl]-5H,6H,7H-cyclopenta[d]pyrimidin-4-yl}(methyl)amino)-N-(5-methoxypyrimidin-2-yl)acetamide]
7 | 7.6 | CN(CC(=O)Nc1cnn(C)c1)c1nc(-c2cc(OCCO)ccn2)nc2c1CCC2 [Compound 296, 2-({2-[4-(2-hydroxyethoxy)pyridin-2-yl]-5H,6H,7H-cyclopenta[d]pyrimidin-4-yl}(methyl)amino)-N-(1-methyl-1H-pyrazol-4-yl)acetamide]
8 | 7.5 | Cc1ccc(NC(=O)CN(C)c2nc(-c3cc4cc(CO)ccc4cn3)nc3c2CCC3)cn1 [Compound 297, 2-({2-[6-(hydroxymethyl)isoquinolin-3-yl]-5H,6H,7H-cyclopenta[d]pyrimidin-4-yl}(methyl)amino)-N-(6-methylpyridin-3-yl)acetamide]
9 | 6.1 | Cc1ccc(NC(=O)CN(C)c2nc(-c3ccc(F)cn3)nc3c2CCC3)cn1 [Compound 298, 2-{[2-(5-fluoropyridin-2-yl)-5H,6H,7H-cyclopenta[d]pyrimidin-4-yl](methyl)amino}-N-(6-methylpyridin-3-yl)acetamide]
10 | 6.1 | CN(CC(=O)NC(C)(C)C)c1nc(-c2ccc(F)cn2)nc2c1CCC2 [Compound 299, N-tert-butyl-2-{[2-(5-fluoropyridin-2-yl)-5H,6H,7H-cyclopenta[d]pyrimidin-4-yl](methyl)amino}acetamide]
11 | 6.2 | CN(CC(=O)NC(C)(C)C)c1nc(-c2ccc(Cl)cn2)nc2c1CCC2 [Compound 300, N-tert-butyl-2-{[2-(5-chloropyridin-2-yl)-5H,6H,7H-cyclopenta[d]pyrimidin-4-yl](methyl)amino}acetamide]
12 | 6.9 | CN(CC(=O)NC(C)(C)C)c1nc(-c2cc3scnc3cn2)nc2c1CCC2 [Compound 301, N-tert-butyl-2-[methyl(2-{[1,3]thiazolo[4,5-c]pyridin-6-yl}-5H,6H,7H-cyclopenta[d]pyrimidin-4-yl)amino]acetamide]
13 | 7.9 | Cc1ccc(NC(=O)CN(C)c2nc(-c3cc(OCC(C)(C)O)ccn3)nc3c2CCC3)cn1 [Compound 302, 2-({2-[4-(2-hydroxy-2-methylpropoxy)pyridin-2-yl]-5H,6H,7H-cyclopenta[d]pyrimidin-4-yl}(methyl)amino)-N-(6-methylpyridin-3-yl)acetamide]
